PMC7489219 (Molecular Brain, 2020)
Where a name gives a salt, the structure may show the parent alone.

tested on: T1, primary mouse cortical neurons; assay: cells; parameters: Protection from NMDA-induced (30 uM, 10 min) neuronal death; Hoechst nuclear morphology by automated microscopy; conditions: Cortical neurone, 20 h, read-out: % inhibition, inhibition of NMDA-induced cell death (protection score), 30 min pre-treatment
T1 construct: primary cortical neurons, DIV 10
Outline: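 On DIV 10, primary mouse cortical neurons were given compound at 10 μM for 30 min at 37 °C, then 30 μM NMDA for 10 min, washed, and kept 20 h with compound. Dead cells were scored by nuclear morphology, and % protection was derived from survival relative to vehicle + NMDA and untreated controls.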

Row | Compound | inhibition at 10 µM
1 | Cc1cnc(C(=O)NCCc2ccc(S(=O)(=O)NC(=O)NC3CCCCC3)cc2)cn1 [Glipizide (Glucotrol)] | 9.36%
2 | C[C@]12C=CC(=O)N[C@@H]1CC[C@@H]1[C@@H]2CC[C@]2(C)[C@@H](C(=O)Nc3cc(C(F)(F)F)ccc3C(F)(F)F)CC[C@@H]12 [Dutasteride] | 113%
3 | CC(C[N+](C)(C)C)OC(N)=O (stereo not drawn) [Bethanechol chloride] | -1.35%
4 | CN(C)[C@@H](CCOc1cccc2ccccc12)c1ccccc1 [Dapoxetine hydrochloride (Priligy)] | -1.89%
5 | COc1ccc([C@H]2CNC(=O)C2)cc1OC1CCCC1 [S-(+)-Rolipram] | -1.23%
6 | COc1c(O)cc2c(c1O)[C@@H]1O[C@H](CO)[C@@H](O)[C@H](O)[C@H]1OC2=O [Bergenin (Cuscutin)] | 1.66%
7 | CC1(C)CC[C@]2(C(=O)O)CC[C@]3(C)C(=CC[C@@H]4[C@@]5(C)CC[C@H](O)C(C)(C)[C@@H]5CC[C@]43C)[C@@H]2C1 [Oleanolic Acid (Caryophyllin)] | -2%
8 | C=C1C(=O)O[C@H]2[C@H]1CC/C(C)=C/CC[C@@]1(C)O[C@@H]21 [Parthenolide ((-)-Parthenolide)] | -3.83%
9 | C[C@H]1[C@H](OC(=O)CCC(=O)O)O[C@@H]2O[C@@]3(C)CC[C@H]4[C@H](C)CC[C@@H]1[C@@]24OO3 [Artesunate] | -3.35%
10 | O=C(O)CSCC(=O)NC1CCSC1=O (stereo not drawn) [Erdosteine] | -0.838%
11 | CC1(C)[C@@H](O)CC[C@]2(C)[C@H]3C(=O)C=C4[C@@H]5C[C@@](C)(C(=O)O)CC[C@]5(C)CC[C@@]4(C)[C@]3(C)CC[C@@H]12 [Enoxolone (Glycyrrhetin)] | -0.00685%
12 | CCCCNc1cc(C(=O)O)cc(S(N)(=O)=O)c1Oc1ccccc1 [Bumetanide] | -2.16%
13 | C[C@H](CCC(=O)O)[C@H]1CC[C@H]2[C@@H]3[C@H](O)C[C@@H]4C[C@H](O)CC[C@]4(C)[C@H]3CC[C@]12C [Chenodeoxycholic acid] | -2.92%
14 | CNCCC[C@]12CC[C@H](c3ccccc31)c1ccccc12 [Maprotiline hydrochloride] | 0.000867%
15 | CC(O)(CS(=O)(=O)c1ccc(F)cc1)C(=O)Nc1ccc(C#N)c(C(F)(F)F)c1 (stereo not drawn) [Bicalutamide (Casodex)] | -3.38%
16 | N[C@@H](CSCCCO)C(=O)O [Fudosteine] | 7.72%
17 | CNCCC(Oc1ccc(C(F)(F)F)cc1)c1ccccc1 (stereo not drawn) [Fluoxetine HCl] | -11.1%
18 | O=c1[nH]c(=O)n([C@H]2C[C@H](O)[C@@H](CO)O2)cc1F [Floxuridine] | -8.07%
19 | Cn1nnc2c(C(N)=O)ncn2c1=O [Methazolastone] | 14.3%
20 | CN(C)/N=N/c1nc[nH]c1C(N)=O [Dacarbazine (DTIC-Dome)] | -1.39%
21 | COc1ccc2[nH]c([S@@+]([O-])Cc3ncc(C)c(OC)c3C)nc2c1 [Esomeprazole sodium (Nexium)] | 21.3%
22 | O=c1cc(-c2ccccc2)oc2cc(O)c(O)c(O)c12 [Baicalein] | -2.71%
23 | NC(=O)N1c2ccccc2C=Cc2ccccc21 [Carbamazepine (Carbatrol)] | 2.33%

Row | Compound | inhibition at 10 µM
24 | Nc1nc(F)nc2c1ncn2[C@@H]1O[C@H](COP(=O)(O)O)[C@@H](O)[C@@H]1O [Fludarabine Phosphate (Fludara)] | -10.8%
25 | C[N+](C)(C)CC(O)CC(=O)[O-] (racemic) [DL-Carnitine hydrochloride] | 2.11%
26 | CN1C(C(=O)Nc2ccccn2)=C(O)c2ccccc2S1(=O)=O [Piroxicam (Feldene)] | 4.8%
27 | COc1ccc(Cl)cc1C(=O)NCCc1ccc(S(=O)(=O)NC(=O)NC2CCCCC2)cc1 [Glyburide (Diabeta)] | 0.906%
28 | Nc1cccc2c1CN(C1CCC(=O)NC1=O)C2=O (stereo not drawn) [Lenalidomide] | -2.36%
29 | CCN(CC)CC#CCOC(=O)C(O)(c1ccccc1)C1CCCCC1 (stereo not drawn) [Oxybutynin (Ditropan)] | 37.3%
30 | COc1c2occc2cc2ccc(=O)oc12 [Methoxsalen (Oxsoralen)] | -4.76%
31 | OCCOCCN1CCN(C2=Nc3ccccc3Sc3ccccc32)CC1 [Quetiapine fumarate (Seroquel)] | 0.552%
32 | COC(=O)[C@H]1[C@H]2C[C@@H]3c4[nH]c5cc(OC)ccc5c4CCN3C[C@H]2C[C@@H](OC(=O)c2cc(OC)c(OC)c(OC)c2)[C@@H]1OC [Reserpine] | 24%
33 | CC(=O)N[C@@H](CS)C(=O)O [Acetylcysteine] | 29%
34 | C[C@@H](NCCc1ccc(O)cc1)[C@@H](O)c1ccc(O)cc1 (racemic) [Ritodrine hydrochloride (Yutopar)] | 3.89%
35 | COc1ccc(-c2oc3c(CC=C(C)C)c(O[C@@H]4O[C@H](CO)[C@@H](O)[C@H](O)[C@H]4O)cc(O)c3c(=O)c2O[C@@H]2O[C@@H](C)[C@H](O)[C@@H](O)[C@H]2O)cc1 [Icariin] | -2.42%
36 | N[C@@H](Cc1c[nH]c2ccc(O)cc12)C(=O)O [5-hydroxytryptophan (5-HTP)] | -0.632%
37 | C[C@H](CCC(=O)O)[C@H]1CC[C@H]2[C@@H]3[C@@H](O)C[C@@H]4C[C@H](O)CC[C@]4(C)[C@H]3CC[C@]12C [Ursodiol (Actigal Urso)] | 35.3%
38 | COc1cc2c(cc1O)CC[C@@H]1[C@@H]2CC[C@]2(C)[C@@H](O)CC[C@@H]12 [2-Methoxyestradiol] | 19.8%
39 | COc1ccc([C@@H]2CC(=O)c3c(O)cc(O[C@@H]4O[C@H](CO[C@@H]5O[C@@H](C)[C@H](O)[C@@H](O)[C@H]5O)[C@@H](O)[C@H](O)[C@H]4O)cc3O2)cc1O [Hesperidin] | -3.55%
40 | C[C@H]1COc2c(N3CCN(C)CC3)c(F)cc3c(=O)c(C(=O)O)cn1c23 [Levofloxacin (Levaquin)] | -4.92%
41 | c1coc(CNc2ncnc3[nH]cnc23)c1 [Kinetin (6-Furfuryladenine)] | -0.453%
42 | Nc1nc2[nH]cc(CCc3ccc(C(=O)N[C@@H](CCC(=O)O)C(=O)O)cc3)c2c(=O)[nH]1 [Pemetrexed] | 0.519%
43 | C=C1C[C@@]2(O)O[C@@]3(C[C@H]2C(C)C)[C@@H](C)CC[C@@H]13 [Curcumol] | 7.41%
44 | Nc1nc(=O)n([C@@H]2CS[C@H](CO)O2)cc1F [Emtricitabine (Emtriva)] | 14.4%
45 | Cc1ccnc2c1NC(=O)c1cccnc1N2C1CC1 [Nevirapine (Viramune)] | 9.64%
46 | CN[C@@H](C)[C@H]1[C@H](O)C[C@@]2(C)[C@@H]3CC[C@H]4C(C)(C)[C@@H](NC)CC[C@@]45C[C@@]35CC[C@]12C [Cyclovirobuxin D (Bebuxine)] | 17.2%

Row | Compound | inhibition at 10 µM
47 | C=C1C(=O)[C@]23[C@H](O)[C@H]1CC[C@H]2[C@@]12CO[C@]3(O)[C@@H](O)[C@@H]1C(C)(C)CC[C@@H]2O [Oridonin (Isodonol)] | -2.85%
48 | NC(=O)c1ncn([C@@H]2O[C@H](CO)[C@@H](O)[C@H]2O)n1 [Ribavirin (Copegus)] | 12.3%
49 | CCC(=O)NCC[C@@H]1CCc2ccc3c(c21)CCO3 [Ramelteon (TAK-375)] | -3.3%
50 | CCC[C@@H]1C[C@@H](C(=O)N[C@@H]([C@H]2O[C@H](SC)[C@H](O)[C@@H](O)[C@H]2O)[C@@H](C)O)N(C)C1 [Lincomycin hydrochloride (Lincocin)] | -7.87%
51 | C[C@H]1COC2=C1C(=O)C(=O)c1c2ccc2c1CCCC2(C)C [Cryptotanshinone] | -2.15%
52 | CCCCC1=NC2(CCCC2)C(=O)N1Cc1ccc(-c2ccccc2-c2nnn[nH]2)cc1 [Irbesartan (Avapro)] | 0.237%
53 | Cc1coc2c1C(=O)C(=O)c1c-2ccc2c(C)cccc12 [Tanshinone I] | -5.27%
54 | O=C(CCc1ccc(O)cc1)c1c(O)cc(O)cc1O[C@@H]1O[C@H](CO)[C@@H](O)[C@H](O)[C@H]1O [Phlorizin (Phloridzin)] | -2.89%
55 | C[C@H](CCC(=O)O)[C@H]1CC[C@H]2[C@@H]3C[C@H](O)[C@@H]4C[C@H](O)CC[C@]4(C)[C@H]3CC[C@]12C [Hyodeoxycholic acid (HDCA)] | -3.21%
56 | CN1[C@@H]2CC(OC(=O)[C@H](CO)c3ccccc3)C[C@H]1[C@@H]1O[C@@H]12 (stereo partly drawn) [Scopolamine hydrobromide] | -0.0258%
57 | CC1(C)O[C@@H]2C[C@H]3[C@@H]4CCC5=CC(=O)C=C[C@]5(C)[C@H]4[C@@H](O)C[C@]3(C)[C@]2(C(=O)CO)O1 [Desonide] | 9.64%
58 | O=c1cc(-c2ccc(O)cc2)oc2cc(O)cc(O)c12 [Apigenin] | -0.752%
59 | Oc1ncnc2[nH]ncc12 [Allopurinol (Zyloprim)] | 19.8%
60 | NS(=O)(=O)Cc1noc2ccccc12 [Zonisamide] | -5.91%
61 | O[C@@H](CNC[C@H](O)[C@H]1CCc2cc(F)ccc2O1)[C@@H]1CCc2cc(F)ccc2O1 [Nebivolol (Bystolic)] | -2.64%
62 | Nc1ncnc2c1ncn2[C@@H]1O[C@H](COP(=O)(O)OP(=O)(O)OP(=O)(O)O)[C@@H](O)[C@H]1O [ATP (Adenosine-Triphosphate)] | 0.248%
63 | O=C1CCc2cc(OCCCCc3nnnn3C3CCCCC3)ccc2N1 [Cilostazol] | -13.8%
64 | Nc1nc(Cl)nc2c1ncn2[C@H]1C[C@H](O)[C@@H](CO)O1 [Cladribine] | -1.65%
65 | CC(=O)NC[C@H]1CN(c2ccc(N3CCOCC3)c(F)c2)C(=O)O1 [Linezolid (Zyvox)] | 37%
66 | Nc1ccn([C@H]2CC[C@@H](CO)O2)c(=O)n1 [Zalcitabine] | 3.28%
67 | CN(C)c1ccc(C(=C2C=CC(=[N+](C)C)C=C2)c2ccc(N(C)C)cc2)cc1 [Crystal violet] | -3.37%
68 | Nc1ccn([C@@H]2O[C@H](CO)[C@@H](O)[C@@H]2O)c(=O)n1 [Cytarabine] | 38.3%
69 | O=C(O)c1cc(=O)[nH]c(=O)[nH]1 [Orotic acid (6-Carboxyuracil)] | -3.32%
